This is an account of results in patent US4937232A, “Inhibition of protein kinase C by long-chain bases” (priority 1988, dated 1990).

For data set [1], the system named is HL-60 cells. The data set can be described thus: HL-60 cell growth and viability. The format is cell-based, human. On the procedure: (§1) The HL-60 cells (obtained from the American Type Culture Collection, ATCC CCL240) were grown at 37° as a suspension culture in 175 cm^2 Nunc tissue culture flasks (Vangard International, Neptune, N.J.). The cells were subcultured at a density of 0.25×10^6 cells/ml and used between passage numbers 30 and 40.
(§2) Cells were centrifuged at 600 g for 3 min, and added at 1×10^5 cells per well in 12-well culture dishes. Medium, PMA, and long-chain bases (prepared as the 1:1 molar complex with fatty acid-free bovine serum albumin) at the indicated concentrations were added for a total volume of 2.0 ml. After the desired times, the cells in suspension were counted and checked for viability (trypan blue exclusion) with a hemacytometer. The attached cells were quantitated by measuring DNA content according to the method of West et al (Anal. Biochem., 147, 289-295, 1985) and by assaying for acid phosphatase according to the method of Schnyder (J. Exp. Med., 148, 434-445, 1978).

The nature of data set [2]: HL-60 cell growth and viability. The format is cell-based, human. The conditions noted are these: human, hl-60 cells, 24 h; for viability at 24 h, 2.5 µM: 2.5 μM sphinganine; for viability at 24 h, 5 µM: 5 μM sphinganine. The method, then:
as §1, §2

For data set [3], the system named is human platelets. The data set is described as follows: [3H]PDBu binding to human platelets. The method, then: Human platelets, prepared as described above, were suspended at a concentration of 2.5×10^8 platelet/ml. 50 μl of the platelets were then incubated for five minutes with the indicated concentration of sphingosine in Eppendorf microfuge tubes. Sphingosine was prepared in 50% ethanol at a concentration 100-fold the final concentration so that ethanol was kept at 0.5%. [^3 H]PDBu was added to 10 nM and incubated with the platelets at 37° for 10 minutes. The samples were then filtered on Whatman GF/C filters pre-washed with 5 ml of modified Tyrode's buffer containing 0.1% bovine serum albumin, washed with 10 ml of the same buffer, dried, and counted in 10 ml of Aquasol II in an LKB beta counter. Non-specific binding was determined in the presence of 1 μM unlabelled PDBu and subtracted from the total counts to yield the specific binding.

The subject of data set [4] is protein kinase C. The data set is described as follows: [3H]PDBu binding to protein kinase C in mixed micelles. Also noted: species or system rat. The settings on record: 16 and 20 mol % PS. The method, then: [^3 H]PDBu binding was performed as previously described (26).
Data set [5] relates to protein kinase M. The data set is described as follows: Activity of the catalytic domain (protein kinase M). The format is biochemical, rat. On the procedure:
Under these conditions, the bulk concentration of PS was 260 μM and diC18:1 was 86 μM. Therefore, 50% inhibition (100 μM) occurred on a molar basis equivalent to [diC18:1 ] or to 0.4 of [PS]. The potency of sphingosine inhibition was markedly affected by the number of Triton X-100 mixed micelles containing 7 mol % PS and 1 mol % diC18:1present in the assay (FIG. 11A). Thus, the effect of sphingosine was subject to surface dilution. When the data are expressed as mol %, (sphingosine:Triton X-100), sphingosine inhibition at four different levels of Triton X-100 mixed micelles (containing PS and diC18:1) was identical (FIG. 11B) implying that it is the number of sphingosine molecules present in each mixed micelle that determines the potency and not the absolute concentration. For surface active amphipathic molecules, the expression of inhibitor potencies must be relative to the amount of surface (micelles in this case) as bulk concentrations are misleading. […] To test this hypothesis, the catalytic domain (protein kinase M) was generated by proteolysis of protein kinase C^2. The activity of this catalytic domain which is independent of Ca^2+, phospholipid and DAG/phorbol esters was not inhibited by sphingosine (FIG. 10).
^2 The catalytic domain was generated by trypsin treatment of purified protein kinase C; and purified by Ultrogel AcA-44 molecular sieve chromatography. […]

The test system of data set [6] is protein kinase C-induced phosphorylation of the 40 KDa polypeptide. The data set can be described thus: 40K (40 kDa) protein phosphorylation in human platelets. The format is cell-based. On the procedure:
They were then suspended in modified Tyrode's buffer to a concentration of 2.5×10^8 platelets/ml.
^32 Pi at 0.2 mCi/ml was added to the platelet suspension and labelling was allowed to proceed for 75 minutes at 37° C., after which the platelets were pelleted at 600×g for 10 minutes and resuspended in Tyrode's buffer to the same concentration. They were then aliquoted in Eppendorf microfuge tubes and preincubated at 37° C. for 5 minutes with the varying concentrations of sphingosine. Platelets were then stimulated with either 5 μM dioctanoylglycerol (added as an ethanol solution with the final concentration of ethanol 0.5%), 10 μM TPA, or 1 unit/ml thrombin. The reactions were stopped after 30 seconds by the addition of an equal volume of 2× sample buffer, and the samples were then boiled for 3 minutes. […] Gels were subsequently fixed in water/methanol/acetic acid (60:30:10), dried, and autoradiographed.

The mark [7] stands for this setting: 8 nM PMA, read-out: Percent viability of suspended cells.
The mark [8] stands for this setting: No PMA, read-out: Percent viability of suspended cells.

Read-outs that look alike come from different tables or passages of the source.

What is called viability is a read-out of living cells in per cent, often relative to untreated cells. For the molecule `CCCCCCCCCCCCCCC[C@@H](O)[C@@H](N)CO` (relative stereo) [Sphinganine, erythro-dihydrosphingosine], the “HL-60 cell growth (doubling)” value in data set [1] (1 μM sphinganine, first 24 h) was “not changed”. For the same molecule, in data set [1] (5 μM sphinganine, second day), the HL-60 cytotoxicity result is on record as “significant cell death”. Moreover, the HL-60 cell growth entry in data set [1] (1 and 2.5 μM sphinganine, second day) is “inhibited growth without cytotoxicity”; in data set [1] (2.5 and 5 μM sphinganine, first 24 h) it was “limited growth”. Besides, the viability at 24 h, 1 µM in data set [2] (8 nM PMA + 1 μM sphinganine, read-out: % Viability) was found to be 93%; in data set [2] (8 nM PMA, 1 μM sphinganine, read-out: Percent viability of suspended cells) it was 87%; in data set [2] (1 μM sphinganine, no PMA, read-out: % Viability), 95%; in data set [2] (No PMA, 1 μM sphinganine, read-out: Percent viability of suspended cells) it was 90%. The viability at 24 h, 2.5 µM in data set [2] (setting [7]) amounted to 94%; in data set [2] (setting [8]), 98%. The viability at 24 h, 5 µM is 80% in data set [2] (setting [7]) and 87% in data set [2] (setting [8]).
Consider `CCCCCCCCCCCCC/C=C/[C@@H](O)[C@@H](N)CO` [sphingosine], for which the “inhibition of [3H]PDBu binding to whole human platelets” value in data set [3] is recorded as “able to inhibit this binding”. Further, the “inhibition of phorbol-ester binding to mixed micelles” value in data set [4] is reported as “inhibited”. Further, the “inhibition of the catalytic domain (protein kinase M)” value in data set [5] was “not inhibited”. Further, the “inhibition of thrombin-induced 40K phosphorylation” value in data set [6] (25 μM sphingosine) is “nearly complete inhibition”; in data set [6] (concentrations as low as 10 μM), “Partial inhibition”. In addition, the “inhibition of TPA and diC8-induced 40K phosphorylation” value in data set [6] (data not shown) is given as “inhibited”. The “sphingosine required for complete inhibition (mol % sphingosine:phospholipids)” value in data set [6] (platelet 40K phosphorylation, similar to in vitro inhibition of protein kinase C) was 3-5 mol %.
